Laboratory results reported in patent publication US20200055839A1 (priority 2017, published 2020).

These compounds were tested on NL-RLuc virus (assay: Inhibition of HIV replication (NL-RLuc virus, luciferase readout in MT-2 cells)). Settings: Human immunodeficiency virus 1, MT2, 120 h, MT-2 cells infected with NL-RLuc virus, 5 days of incubation, 10% FBS, at least 2 experiments.
Type: cell-based
Outline: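 MT-2 cells infected with NL4-3-derived virus carrying Renilla luciferase in place of part of nef, grown 5 days with serial compound dilutions in RPMI 1640/10% FBS. Virus growth read as luciferase expression. EC50 from median effect equation, at least 2 experiments.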
`Cc1cccc(CCOc2ncc(-c3cnc(C)c([C@H](OC(C)(C)C)C(=O)O)c3N3CCC(C)(C)CC3)cc2F)c1` [Example 372, (2S)-2-(tert-butoxy)-2-[4-(4,4-dimethylpiperidin-1-yl)-5′-fluoro-6-methyl-6′-[2-(3-methylphenyl)ethoxy]-[3,3′-bipyridine]-5-yl]acetic acid] was tested, and the EC50 was 1 nM. In the case of `Cc1ncc(-c2cnc(OCCc3c(Cl)cccc3Cl)c(F)c2)c(N2CCC(C)(C)CC2)c1[C@H](OC(C)(C)C)C(=O)O` [Example 373, (2S)-2-(tert-butoxy)-2-{6′-[2-(2,6-dichlorophenyl)ethoxy]-4-(4,4-dimethylpiperidin-1-yl)-5′-fluoro-6-methyl-[3,3′-bipyridine]-5-yl}acetic acid], the EC50 is reported as 3 nM. `COc1ccc(CCOc2ncc(-c3cnc(C)c([C@H](OC(C)(C)C)C(=O)O)c3N3CCC(C)(C)CC3)cc2F)cc1` [Example 374, (2S)-2-(tert-butoxy)-2-[4-(4,4-dimethylpiperidin-1-yl)-5′-fluoro-6′-[2-(4-methoxyphenyl)ethoxy]-6-methyl-[3,3′-bipyridine]-5-yl]acetic acid] gave an EC50 of 0.3 nM. `Cc1ncc(-c2cnc(OCC(C)(C)C)c(F)c2)c(N2CCC(C)(C)CC2)c1[C@H](OC(C)(C)C)C(=O)O` [Example 375, (2S)-2-(tert-butoxy)-2-[4-(4,4-dimethylpiperidin-1-yl)-6′-(2,2-dimethylpropoxy)-5′-fluoro-6-methyl-[3,3′-bipyridine]-5-yl]acetic acid] gave an EC50 of 8 nM. For `Cc1ncc(-c2cnc(OCCC(C)(C)C)c(F)c2)c(N2CCC(C)(C)CC2)c1[C@H](OC(C)(C)C)C(=O)O` [Example 376, (2S)-2-(tert-butoxy)-2-[6′-(3,3-dimethylbutoxy)-4-(4,4-dimethylpiperidin-1-yl)-5′-fluoro-6-methyl-[3,3′-bipyridine]-5-yl]acetic acid], the EC50 was 5 nM. For `CCCCOc1ncc(-c2cnc(C)c([C@H](OC(C)(C)C)C(=O)O)c2N2CCC(C)(C)CC2)cc1F` [Example 377, (2S)-2-(tert-butoxy)-2-[6′-butoxy-4-(4,4-dimethylpiperidin-1-yl)-5′-fluoro-6-methyl-[3,3′-bipyridine]-5-yl]acetic acid], the EC50 was 4 nM. With `Cc1ncc(-c2cnc(OCc3ccccc3)c(F)c2)c(N2CCC(C)(C)CC2)c1[C@H](OC(C)(C)C)C(=O)O` [Example 378, (2S)-2-[6′-(benzyloxy)-4-(4,4-dimethylpiperidin-1-yl)-5′-fluoro-6-methyl-[3,3′-bipyridine]-5-yl]-2-(tert-butoxy)acetic acid] the EC50 was 2 nM. `Cc1ncc(-c2cnc(O[C@@H](C)Cc3ccccc3)c(F)c2)c(N2CCC(C)(C)CC2)c1[C@H](OC(C)(C)C)C(=O)O` [Example 379, (2S)-2-(tert-butoxy)-2-[4-(4,4-dimethylpiperidin-1-yl)-5′-fluoro-6-methyl-6′-{[(2S)-1-phenylpropan-2-yl]oxy}-[3,3′-bipyridine]-5-yl]acetic acid] showed an EC50 of 2 nM. `Cc1ncc(-c2cnc(O[C@H](C)Cc3ccccc3)c(F)c2)c(N2CCC(C)(C)CC2)c1[C@H](OC(C)(C)C)C(=O)O` [Example 380, (2S)-2-(tert-butoxy)-2-[4-(4,4-dimethylpiperidin-1-yl)-5′-fluoro-6-methyl-6′-{[(2R)-1-phenylpropan-2-yl]oxy}-[3,3′-bipyridine]-5-yl]acetic acid] gave an EC50 of 2 nM. Compound `Cc1ncc(-c2cnc(OCC(C)C)c(F)c2)c(N2CCC(C)(C)CC2)c1[C@H](OC(C)(C)C)C(=O)O` [Example 381, (2S)-2-(tert-butoxy)-2-[4-(4,4-dimethylpiperidin-1-yl)-5′-fluoro-6-methyl-6′-(2-methylpropoxy)-[3,3′-bipyridine]-5-yl]acetic acid] has an EC50 of 3 nM. `COc1ccccc1CCOc1ncc(-c2cnc(C)c([C@H](OC(C)(C)C)C(=O)O)c2N2CCC(C)(C)CC2)cc1F` [Example 382, (2S)-2-(tert-butoxy)-2-[4-(4,4-dimethylpiperidin-1-yl)-5′-fluoro-6′-[2-(2-methoxyphenyl)ethoxy]-6-methyl-[3,3′-bipyridine]-5-yl]acetic acid] was tested, and the EC50 was 5 nM. `COc1cccc(CCOc2ncc(-c3cnc(C)c([C@H](OC(C)(C)C)C(=O)O)c3N3CCC(C)(C)CC3)cc2F)c1` [Example 383, (2S)-2-(tert-butoxy)-2-[4-(4,4-dimethylpiperidin-1-yl)-5′-fluoro-6′-[2-(3-methoxyphenyl)ethoxy]-6-methyl-[3,3′-bipyridine]-5-yl]acetic acid] showed an EC50 of 3 nM. With `Cc1ncc(-c2cnc(OC(C)CC(C)C)c(F)c2)c(N2CCC(C)(C)CC2)c1[C@H](OC(C)(C)C)C(=O)O` (stereo partly drawn) [Example 384, (2S)-2-(tert-butoxy)-2-[4-(4,4-dimethylpiperidin-1-yl)-5′-fluoro-6-methyl-6′-[(4-methylpentan-2-yl)oxy]-[3,3′-bipyridine]-5-yl]acetic acid] the EC50 was 9 nM. With `Cc1ccccc1CCOc1ncc(-c2cnc(C)c([C@H](OC(C)(C)C)C(=O)O)c2N2CCC(C)(C)CC2)cc1F` [Example 385, (2S)-2-(tert-butoxy)-2-[4-(4,4-dimethylpiperidin-1-yl)-5′-fluoro-6-methyl-6′-[2-(2-methylphenyl)ethoxy]-[3,3′-bipyridine]-5-yl]acetic acid] the EC50 was 3 nM. With `CCC(C)COc1ncc(-c2cnc(C)c([C@H](OC(C)(C)C)C(=O)O)c2N2CCC(C)(C)CC2)cc1F` (stereo partly drawn) [Example 386, (2S)-2-(tert-butoxy)-2-[4-(4,4-dimethylpiperidin-1-yl)-5′-fluoro-6-methyl-6′-(2-methylbutoxy)-[3,3′-bipyridine]-5-yl]acetic acid] the EC50 was 6 nM. `Cc1ncc(-c2cnc(O)c(F)c2)c(N2CCC(C)(C)CC2)c1[C@H](OC(C)(C)C)C(=O)O` [Example 387, (2S)-2-(tert-butoxy)-2-[4-(4,4-dimethylpiperidin-1-yl)-5′-fluoro-6′-hydroxy-6-methyl-[3,3′-bipyridine]-5-yl]acetic acid] gave an EC50 of 4000 nM. Compound `Cc1ncc(-c2cnc(OC[C@@H](C)c3ccccc3)c(F)c2)c(N2CCC(C)(C)CC2)c1[C@H](OC(C)(C)C)C(=O)O` [Example 388, (2S)-2-(tert-butoxy)-2-[4-(4,4-dimethylpiperidin-1-yl)-5′-fluoro-6-methyl-6′-[(2S)-2-phenylpropoxy]-[3,3′-bipyridine]-5-yl]acetic acid] has an EC50 of 3 nM. In the case of `CCCOc1ncc(-c2cnc(C)c([C@H](OC(C)(C)C)C(=O)O)c2N2CCC(C)(C)CC2)cc1F` [Example 389, (2S)-2-(tert-butoxy)-2-[4-(4,4-dimethylpiperidin-1-yl)-5′-fluoro-6-methyl-6′-propoxy-[3,3′-bipyridine]-5-yl]acetic acid], the EC50 is reported as 3 nM. `Cc1ncc(-c2cnc(OCCc3cc(F)cc(F)c3)c(F)c2)c(N2CCC(C)(C)CC2)c1[C@H](OC(C)(C)C)C(=O)O` [Example 390, (2S)-2-(tert-butoxy)-2-{6′-[2-(3,5-difluorophenyl)ethoxy]-4-(4,4-dimethylpiperidin-1-yl)-5′-fluoro-6-methyl-[3,3′-bipyridine]-5-yl}acetic acid] was tested, and the EC50 was 2 nM. `COc1ccc(CCOc2ncc(-c3cnc(C)c([C@H](OC(C)(C)C)C(=O)O)c3N3CCC(C)(C)CC3)cc2F)cc1C` [Example 391, (2S)-2-(tert-butoxy)-2-[4-(4,4-dimethylpiperidin-1-yl)-5′-fluoro-6′-[2-(4-methoxy-3-methylphenyl)ethoxy]-6-methyl-[3,3′-bipyridine]-5-yl]acetic acid] showed an EC50 of 4 nM.
